Laboratory results published in patent US4338451A, “5-Hydroxymethyl oxazolidinones” (Delalande S.A., priority 1977, dated 1982).

Legend:
[1] = tested on: generalized trembling caused by an interperitoneal injection (200 mg/kg) of dl-5-hydroxytryptophane; assay: Test A: potentiation in mice of generalized trembling caused by dl-5-hydroxytryptophane; format: in vivo; settings: Mus musculus, po, dl-5-hydroxytryptophane 200 mg/kg intraperitoneal, read-out: Test A ED 50
Experimental: Potentiation in mice of generalized trembling caused by an interperitoneal injection (200 mg/kg) of dl-5-hydroxytryptophane, following the protocol described by C. GOURET and G. RAYNAUD in J. Pharmacol. (Paris), (1974) 5, 231.

[2] = tested on: ptosis observed one hour after an intravenous injection (2 mg/kg) of reserpine; assay: Test B: antagonism of the ptosis caused by reserpine in mice; format: in vivo; settings: Mus musculus, po, 1 h, p.o., reserpine 2 mg/kg intravenous, read-out: Test B ED 50
Experimental: Antagonism with respect to the ptosis observed one hour after an intravenous injection (2 mg/kg) of reserpine given to mice, following the protocol described by C.

[3] = tested on: pontogeniculo-occipital points (P.G.O.) caused by an intravenous injection (0.5 mg/kg) of reserpine; assay: Test C: reduction in the density of pontogeniculo-occipital points (P.G.O.) caused by reserpine in cats; format: in vivo; settings: Felis catus, ip, reserpine 0.5 mg/kg intravenous, read-out: Test C ED 50
Experimental: Reduction in the density of pontogeniculo-occipital points (P.G.O.) caused by an intravenous injection (0.5 mg/kg) of reserpine given to cats, following the protocol described by A. COSTON and C. GOURET in J. Pharmacol. (Paris) (1976), 7, 409.

Acute toxicity in mice = settings: mouse, in vivo, po

SMILES	ED50 [1] [mg/kg]	ED50 [2] [mg/kg]	ED50 [3] [mg/kg]	further results
O=C1OC(CO)CN1c1ccc(OCc2ccccn2)cc1 (centres unmarked) [770 298]	55	12.5		
O=C1OC(CO)CN1c1ccc(OCC2=CCC=CC2)cc1 (centres unmarked) [770 984]	10	25		
O=C1OC(CO)CN1c1ccc(OCCC2CCCCC2)cc1 (centres unmarked) [770 949]	10	16		
CC(=O)Nc1ccc(COc2ccc(N3CC(CO)OC3=O)cc2)cc1 (centres unmarked) [770 569]	5	2.5	6	
O=C1OC(CO)CN1c1ccc(CCc2cccc(Cl)c2)cc1 (centres unmarked) [771 181]	6.25	6.25		
CC(C)(C)CCOc1ccc(N2CC(CO)OC2=O)cc1 (centres unmarked) [771 246]	17	23		
N#CCOc1cccc(N2CC(CO)OC2=O)c1 (centres unmarked) [770 231, 5-hydroxymethyl 3-m-cyanomethyloxyphenyl 2-oxazolidinone]	40	50	14	
O=C1OC(CO)CN1c1ccc(OCC2CCCOC2)cc1 (centres unmarked) [780 034]	4.4	6.2		
CC1(COc2ccc(N3CC(CO)OC3=O)cc2)CCCC1 (centres unmarked) [780 076]	2.3	7		
N#CCCOc1ccc(N2CC(CO)OC2=O)cc1 (centres unmarked) [770 131, 3-(2-p-cyanoethoxyphenyl) 5-hydroxymethyl 2-oxazolidinone]	2.5	3	5.5	mortality (Acute toxicity in mice; 1000 mg/kg): 0%
O=C1OC(CO)CN1c1ccc(OCC2OCCO2)cc1 (centres unmarked) [770 962]	26	50		
CC(=O)COc1ccc(N2CC(CO)OC2=O)cc1 (centres unmarked) [760 652, 3-(p-acetylmethyloxy) 5-hydroxymethyl 2-oxazolidinone]				mortality (Acute toxicity in mice; mice, dose administered 1000 mg/kg/p.o.): 0%
O=C1OC(CO)CN1c1ccc(OCc2cc(Cl)cc(Cl)c2)cc1 (centres unmarked) [770 416]	6.2	10	3	
C=CCCCOc1ccc(N2CC(CO)OC2=O)cc1 (centres unmarked) [770 196]	20	15	16	
O=C1OC(CO)CN1c1ccc(OCC2CCCC2)cc1 (centres unmarked) [770 467]	2.8	1.2	3	
O=C1OC(CO)CN1c1ccc(OCc2ccoc2)cc1 (centres unmarked) [770 979]	14	35		
O=C1OC(CO)CN1c1ccc(OCc2ccc(Cl)cc2Cl)cc1 (centres unmarked) [770 354]	25	30	30	
O=C1OC(CO)CN1c1ccc(OCC2CCCCO2)cc1 (centres unmarked) [770 900]	50	25		
O=C1OC(CO)CN1c1ccc(OCc2ccc(F)c([N+](=O)[O-])c2)cc1 (centres unmarked) [770 955]	13	7		mortality (Acute toxicity in mice; 2000 mg/kg): 17%
O=C1OC(CO)CN1c1ccc(OCc2cccs2)cc1 (centres unmarked) [770 673]	16	35	8	
O=C1OC(CO)CN1c1ccc(OCC2CCOCC2)cc1 (centres unmarked) [771 301]	1.9	3		LD50 (Acute toxicity in mice): > 2000 mg/kg
O=C1OC(CO)CN1c1ccc(OCc2ccc(Cl)c([N+](=O)[O-])c2)cc1 (centres unmarked) [770 672]	25	19		

SMILES	ED50 [1] [mg/kg]	ED50 [2] [mg/kg]	ED50 [3] [mg/kg]	further results
O=C1OC(CO)CN1c1ccc(OCC2SCCS2)cc1 (centres unmarked) [780 080, 3-para[(1,3-dithiolan-2-yl)-methoxy]phenyl 5-hydroxymethyl 2-oxazolidinone]	50	50		
O=C1OC(CO)CN1c1ccc(COc2cccc([N+](=O)[O-])c2)cc1 (centres unmarked) [771 263, 3-para (metanitrophenoxymethyl) phenyl 5-hydroxymethyl 2-oxazolidinone]	4	3.1		
O=C1OC(CO)CN1c1ccc(OCc2cc(Cl)cc([N+](=O)[O-])c2)cc1 (centres unmarked) [771 199]	1.1	0.8		
CC(COc1ccc(N2CC(CO)OC2=O)cc1)=NO (centres unmarked) [770 126, oxime of 3-(p-acetylmethyloxyphenyl) 5-hydroxymethyl 2-oxazolidinone]	8	11	16.5	
CC(C)CCOc1ccc(N2CC(CO)OC2=O)cc1 (centres unmarked) [771 082]	1.3	0.7		LD50 (Acute toxicity in mice): > 2000 mg/kg
COCOc1ccc(N2CC(CO)OC2=O)cc1 (centres unmarked) [760 904]	50	50	8.5	
O=C1OC(CO)CN1c1ccc(OCc2ccc(F)c(Cl)c2)cc1 (centres unmarked) [770 572]	6.3	3.12	8.5	
CCCC(=O)c1ccc(N2CC(CO)OC2=O)cc1 (centres unmarked) [770 423]	35	25	5	
N#Cc1cc(COc2ccc(N3CC(CO)OC3=O)cc2)cc([N+](=O)[O-])c1 (centres unmarked) [771 125]	3.12	1.56		
O=C1OC(CO)CN1c1ccc(OCC2OCCS2)cc1 (centres unmarked) [780 112]	5	5.2		
CCCCCSc1ccc(N2CC(CO)OC2=O)cc1 (centres unmarked) [770 180]	35	45	45	
Nc1cccc(COc2ccc(N3CC(CO)OC3=O)cc2)c1 (centres unmarked) [771 240]	35	50		
N#Cc1cccc(COc2ccc(N3CC(CO)OC3=O)cc2)c1 (centres unmarked) [770 222]	2.8	1.2	5.2	mortality (Acute toxicity in mice; 1000 mg/kg): 0%
O=C1OC(CO)CN1c1ccc(OCc2ccncc2)cc1 (centres unmarked) [770 299]	20	12.5		
O=C1OC(CO)CN1c1ccc(C(F)(F)F)cc1 (centres unmarked) [770 152, 5-hydroxymethyl 3-p-trifluoromethylphenyl 2-oxazolidinone]	20	25	15	
O=C1OC(CO)CN1c1ccc(OCc2cccc(I)c2)cc1 (centres unmarked) [771 321]	25	20		
O=C1OC(CO)CN1c1ccc(OCC2SCCCS2)cc1 (centres unmarked) [780 077]	25	44		
CCC(=O)Nc1ccc(COc2ccc(N3CC(CO)OC3=O)cc2)cc1 (centres unmarked) [780 443]	3.7	12.5		
O=C1OC(CO)CN1c1ccc(OCC2CCC2)cc1 (centres unmarked) [770 788]	6.25	12.5		
CC(C)C(=O)COc1ccc(N2CC(CO)OC2=O)cc1 (centres unmarked) [770 154]	50	50	20	
O=C1OC(CO)CN1c1ccc(COc2ccccc2)cc1 (centres unmarked) [770 696]	15	20		
O=C1OC(CO)CN1c1ccc(OCc2ccsc2)cc1 (centres unmarked) [771 067]	7.5	12.5		

SMILES	ED50 [1] [mg/kg]	ED50 [2] [mg/kg]	ED50 [3] [mg/kg]	further results
O=C1OC(CO)CN1c1ccc(OCc2cnccn2)cc1 (centres unmarked) [770 845]	6.25	12.5		
O=C1OC(CO)CN1c1ccc(OCc2ccc(Cl)c(Cl)c2)cc1 (centres unmarked) [770 268]	7	8.5		
Cc1cccc(N2CC(CO)OC2=O)c1 (centres unmarked) [TOLOXATONE, reference compound]	60	50	28	
CC(=O)COc1cccc(N2CC(CO)OC2=O)c1 (centres unmarked) [770 230]		6.25	16	
O=C1OC(CO)CN1c1ccc(OCC2CC2)cc1 (centres unmarked) [770 388]	9	12.5	4.5	
CC(C)(C)COc1ccc(N2CC(CO)OC2=O)cc1 (centres unmarked) [771 249]	22.5	50		
O=C1OC(CO)CN1c1ccc(OCC2=CCCC2)cc1 (centres unmarked) [770 466]	9.6	6.2	9	
O=C1OC(CO)CN1c1ccc(OCC2CCCCCC2)cc1 (centres unmarked) [780 030]	3	5.3		
CN(C)c1cccc(N2CC(CO)OC2=O)c1 (centres unmarked) [770 155]	50	22.5	35	
O=C1OC(CO)CN1c1ccc(OCCN2CCOCC2)cc1 (centres unmarked) [750 601]	70	8	31	
COC(=O)Nc1ccc(COc2ccc(N3CC(CO)OC3=O)cc2)cc1 (centres unmarked) [780 182]	40	25		
CCC(=O)c1ccc(N2CC(CO)OC2=O)cc1 (centres unmarked) [770 365]	29	25		
CC(=O)CSc1ccc(N2CC(CO)OC2=O)cc1 (centres unmarked) [770 501, 3-(p-acetylmethylthiophenyl) 5-hydroxymethyl 2-oxazolidinone]	22	25		
N#Cc1ccccc1COc1ccc(N2CC(CO)OC2=O)cc1 (centres unmarked) [770 318]	25	16		
CCCCCNc1ccc(N2CC(CO)OC2=O)cc1 (centres unmarked) [770 328, 3-p-n pentylaminophenyl 5-hydroxymethyl 2-oxazolidinone]	25	35		
CCC(CC)COc1ccc(N2CC(CO)OC2=O)cc1 (centres unmarked) [771 197]	25	16		
N#Cc1cc(COc2ccc(N3CC(CO)OC3=O)cc2)ccc1F (centres unmarked) [770 789]	3	2		
O=C1OC(CO)CN1c1ccc(OCCC2CCCC2)cc1 (centres unmarked) [771 245]	1.5	2		LD50 (Acute toxicity in mice): > 2000 mg/kg
O=C1OC(CO)CN1c1ccc(OCc2cccnc2)cc1 (centres unmarked) [770 221]	11.8	3.12	15	
O=C1OC(CO)CN1c1ccc(OCc2ccc([N+](=O)[O-])c(Cl)c2)cc1 (centres unmarked) [770 790]	50	25		
